System: hydrozoas
Test: Experimental Example 1: effect of antifouling agent for a fishnet, nets immersed in the sea off Konbumori in Hokkaido
Format: in vivo
Conditions: conclusion from Table 3
Description: The antifouling agents for […] shown in Examples 3-10 and Comparative Examples 1 and 2 were respectively applied to Tetoron unknotted nets (1000/26, 3 sun mesh) by immersion and air-dried. The nets were retained at about 15 meters underwater in the sea off Konbumori in Hokkaido for 4 months from August 1995. The adhesion organisms were mostly hydrozoas. As Comparative Example 3, the evaluation results without a treatment with an antifouling agent for a […] shown. • Evaluation A: Area of fouling of […], 0%, no adhesion organisms. • Evaluation B: Area of fouling of […], 0-10%, small amount of adhesion organisms to the extent practically acceptable. • Evaluation C: Area of fouling of […], 10-50%, great amount of adhesion organisms, unpractical as a […]. • Evaluation D: Area of fouling of […], 50% or more, markedly greater amount of adhesion organisms.

triphenylborane-dehydroabiethylamine adduct [Example 1]
antifouling effect against coelenterates such as hydrozoas and obelia (in words): extremely strong, long-lasting and practical antifouling effect

From EP0877061A1, “TRIPHENYLBORANE-ROSIN AMINE ADDUCT AND USE OF THE SAME” (Yoshitomi Fine Chemicals, Ltd., priority 1996, dated 1997)
